# Results taken from patent US8796289B2 (AbbVie Inc., priority 2011, dated 2014).
# Biological target: GST-tagged-Wee1 kinase (Homo sapiens, UniProt P30291)
# Test: Wee1 time-resolved fluorescence equilibrium binding assay (displacement of Oregon Green-labeled ATP-competitive kinase probe)
# Conditions: not given
# Procedure: Wee1 kinase was assayed using a time-resolved fluorescence equilibrium binding assay monitoring displacement of a rapidly reversible Oregon Green-labeled ATP-competitive kinase probe (N-(2-(2-(2-(4-(4-(5-chloro-4-(2-(1-hydroxycyclobutyl)thiazol-5-yl)-1H-pyrrolo[2,3-b]pyridin-2-yl)phenyl)piperazin-1-yl)ethoxy)ethoxy)ethyl)-2′,7′-difluoro-3′,6′-dihydroxy-3-oxo-3H-spiro[isobenzofuran-1,9′-xanthene]-5-carboxamide) by competitive Wee1 inhibitors.
# Sequence of GST-tagged-Wee1 kinase (P30291 whole entry): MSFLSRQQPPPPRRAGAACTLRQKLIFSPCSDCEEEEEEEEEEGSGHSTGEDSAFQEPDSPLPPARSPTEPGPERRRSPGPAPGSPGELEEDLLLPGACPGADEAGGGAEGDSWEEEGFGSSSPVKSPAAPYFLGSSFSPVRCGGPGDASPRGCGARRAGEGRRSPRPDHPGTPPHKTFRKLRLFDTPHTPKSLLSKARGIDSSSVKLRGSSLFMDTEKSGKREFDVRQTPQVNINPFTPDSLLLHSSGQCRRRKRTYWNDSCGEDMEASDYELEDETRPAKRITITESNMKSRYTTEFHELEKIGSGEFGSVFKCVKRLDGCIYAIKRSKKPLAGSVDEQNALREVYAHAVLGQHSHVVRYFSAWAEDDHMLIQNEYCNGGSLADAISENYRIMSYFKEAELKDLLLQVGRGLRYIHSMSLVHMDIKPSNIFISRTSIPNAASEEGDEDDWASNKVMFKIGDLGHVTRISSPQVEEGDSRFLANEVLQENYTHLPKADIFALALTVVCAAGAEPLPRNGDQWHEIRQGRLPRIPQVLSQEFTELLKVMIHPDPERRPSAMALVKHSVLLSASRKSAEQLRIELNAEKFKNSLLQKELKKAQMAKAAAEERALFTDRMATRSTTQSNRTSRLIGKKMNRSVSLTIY
row,Compound,Ki
1,"CN1Cc2cc(Nc3ncc4c(=O)n(-c5c(Cl)cccc5Cl)nc(-c5cncs5)c4n3)ccc2C2(CC2)C1 [Example 317, 6-(2,6-dichlorophenyl)-2-[(2′-methyl-2′,3′-dihydro-1′H-spiro[cyclopropane-1,4′-isoquinolin]-7′-yl)amino]-8-(1,3-thiazol-5-yl)pyrimido[4,5-d]pyridazin-5(6H)-one]",0.38 nM
2,"Cc1ccccc1-n1nc(-c2ccc(Cl)cc2Cl)c2nc(Nc3ccc(N4CCN(C)CC4)cc3)ncc2c1=O [Example 41, 8-(2,4-dichlorophenyl)-6-(2-methylphenyl)-2-{[4-(4-methylpiperazin-1-yl)phenyl]amino}pyrimido[4,5-d]pyridazin-5(6H)-one]",38 nM
3,"CC1(C)CNCc2cc(Nc3ncc4c(=O)n(-c5ccccn5)nc(-c5ccccn5)c4n3)ccc21 [Example 264, 2-[(4,4-dimethyl-1,2,3,4-tetrahydroisoquinolin-7-yl)amino]-6,8-di(pyridin-2-yl)pyrimido[4,5-d]pyridazin-5(6H)-one]",12 nM
4,"Cc1nn(-c2c(F)cccc2Cl)c(=O)c2cnc(Nc3ccc4c(c3)CNCC4)nc12 [Example 398, 6-(2-chloro-6-fluorophenyl)-8-methyl-2-(1,2,3,4-tetrahydroisoquinolin-7-ylamino)pyrimido[4,5-d]pyridazin-5(6H)-one]",1 nM
5,CC1(C)CNCc2cc(Nc3ncc4c(=O)n(-c5c(Cl)cccc5Cl)nc(C(F)F)c4n3)ccc21 [Example 478],0.17 nM
6,"CN1CCN(c2ccc(Nc3ncc4c(=O)n(-c5cccc(Cl)c5)nc(-c5ccc(Cl)cc5Cl)c4n3)cc2)CC1 [Example 44, 6-(3-chlorophenyl)-8-(2,4-dichlorophenyl)-2-{[4-(4-methylpiperazin-1-yl)phenyl]amino}pyrimido[4,5-d]pyridazin-5(6H)-one]",520 nM
7,"CN1CCN(c2ccc(Nc3ncc4c(=O)n(-c5ccccc5)nc(-c5cccnc5)c4n3)cc2)CC1 [Example 100, 2-{[4-(4-methylpiperazin-1-yl)phenyl]amino}-6-phenyl-8-(pyridin-3-yl)pyrimido[4,5-d]pyridazin-5(6H)-one]",14 nM
8,"Nc1ccc(N2CCN(c3ncc4c(=O)n(-c5ccncc5)nc(-c5ccccn5)c4n3)CC2)cc1 [Example 218, 2-(4-(4-aminophenyl)piperazin-1-yl)-8-(pyridin-2-yl)-6-(pyridin-4-yl)pyridazino[4,5-d]pyrimidin-5(6H)-one]",480 nM
9,"CCNCCn1cc(-c2nn(-c3c(Cl)cccc3Cl)c(=O)c3cnc(Nc4ccc(N5CCN(C)CC5)cc4)nc23)cn1 [Example 202, 6-(2,6-dichlorophenyl)-8-{1-[2-(ethylamino)ethyl]-1H-pyrazol-4-yl}-2-{[4-(4-methylpiperazin-1-yl)phenyl]amino}pyrimido[4,5-d]pyridazin-5(6H)-one]",0.3 nM
10,"CNCCn1cc(-c2nn(-c3c(Cl)cccc3Cl)c(=O)c3cnc(Nc4ccc(N5CCN(C)CC5)cc4)nc23)cn1 [Example 211, 6-(2,6-dichlorophenyl)-8-{1-[2-(methylamino)ethyl]-1H-pyrazol-4-yl}-2-{[4-(4-methylpiperazin-1-yl)phenyl]amino}pyrimido[4,5-d]pyridazin-5(6H)-one]",0.6 nM
11,"CN1CCN(c2ccc(Nc3ncc4c(=O)n(-c5c(Cl)cccc5Cl)nc(-c5nccs5)c4n3)cc2)CC1 [Example 316, 6-(2,6-dichlorophenyl)-2-{[4-(4-methylpiperazin-1-yl)phenyl]amino}-8-(1,3-thiazol-2-yl)pyrimido[4,5-d]pyridazin-5(6H)-one]",1.8 nM
12,"CN1CCN(c2ccc(Nc3ncc4c(=O)n(-c5c(Cl)cncc5Cl)nc(-c5cn(C)cn5)c4n3)cc2)CC1 [Example 361, 6-(3,5-dichloropyridin-4-yl)-8-(1-methyl-1H-imidazol-4-yl)-2-{[4-(4-methylpiperazin-1-yl)phenyl]amino}pyrimido[4,5-d]pyridazin-5(6H)-one]",4.4 nM
13,"CN(C)C1Cc2ccc(Nc3ncc4c(=O)n(-c5c(Cl)cccc5Cl)nc(C(F)F)c4n3)cc2C1 (stereo not drawn) [Example 408, 6-(2,6-dichlorophenyl)-8-(difluoromethyl)-2-{[2-(dimethylamino)-2,3-dihydro-1H-inden-5-yl]amino}pyrimido[4,5-d]pyridazin-5(6H)-one]",0.41 nM

# Next, values leading:
row,Ki,Compound
1,0.1 nM,"CC(=O)c1cc(-c2nn(-c3c(Cl)cccc3Cl)c(=O)c3cnc(Nc4ccc(N5CCN(C)CC5)cc4)nc23)ccn1 [Example 219, 8-(2-acetylpyridin-4-yl)-6-(2,6-dichlorophenyl)-2-{[4-(4-methylpiperazin-1-yl)phenyl]amino}pyrimido[4,5-d]pyridazin-5(6H)-one]"
2,0.32 nM,"CCc1nn(-c2c(Cl)cccc2Cl)c(=O)c2cnc(Nc3ccc4c(c3)CCN(C)C4(C)C)nc12 [Example 460, 6-(2,6-dichlorophenyl)-8-ethyl-2-[(1,1,2-trimethyl-1,2,3,4-tetrahydroisoquinolin-6-yl)amino]pyrimido[4,5-d]pyridazin-5(6H)-one]"
3,0.04 nM,"Cc1cc(Nc2ncc3c(=O)n(-c4c(Cl)cccc4Cl)nc(-c4ccn(C)n4)c3n2)ccc1N1CCCN(C)CC1 [Example 152, 6-(2,6-dichlorophenyl)-2-{[3-methyl-4-(4-methyl-1,4-diazepan-1-yl)phenyl]amino}-8-(1-methyl-1H-pyrazol-3-yl)pyrimido[4,5-d]pyridazin-5(6H)-one]"
4,0.1 nM,"CN1CCN(c2ccc(Nc3ncc4c(=O)n(-c5c(Cl)cccc5Cl)nc(-c5cccc(F)c5)c4n3)cc2)CC1 [Example 84, 6-(2,6-dichlorophenyl)-8-(3-fluorophenyl)-2-{[4-(4-methylpiperazin-1-yl)phenyl]amino}pyrimido[4,5-d]pyridazin-5(6H)-one]"
5,0.86 nM,"CCc1nn(-c2c(Cl)cccc2Cl)c(=O)c2cnc(Nc3ccc4c(c3)CN(C)CC4)nc12 [Example 493, 6-(2,6-dichlorophenyl)-8-ethyl-2-[(2-methyl-1,2,3,4-tetrahydroisoquinolin-7-yl)amino]pyrimido[4,5-d]pyridazin-5(6H)-one]"
6,5 nM,"CN1CCN(c2ccc(Nc3ncc4c(=O)n(-c5c(Cl)cccc5Cl)nc(-c5cccc(O)n5)c4n3)cc2)CC1 [Example 88, 6-(2,6-dichlorophenyl)-8-(6-hydroxypyridin-2-yl)-2-{[4-(4-methylpiperazin-1-yl)phenyl]amino}pyrimido[4,5-d]pyridazin-5(6H)-one]"
7,2.8 nM,"Cc1nn(-c2c(Cl)cccc2Cl)c(=O)c2cnc(Nc3cccc(C(=O)N4CCN(CCO)CC4)c3)nc12 [Example 527, 6-(2,6-dichlorophenyl)-2-[(3-{[4-(2-hydroxyethyl)piperazin-1-yl]carbonyl}phenyl)amino]-8-methylpyrimido[4,5-d]pyridazin-5(6H)-one]"

# Same assay, conditions: read-out: Wee-1 inhibition Ki
row,Compound,Ki
1,"6-(2-chlorophenyl)-2-{[4-(4-isopropylpiperazin-1-yl)-3-methylphenyl]amino}-8-(2-thienyl)pyrimido[4,5-d]pyridazin-5(6H)-one [Example 166]",0.8 nM
